This note sets out measurements from patent US20190224278A1, “PRODUCING METHOD OF ANTIMICROBIAL PEPTIDE WITH ENHANCED ADHESION AND USES THEREOF” (Intelligent Synthetic Biology Center, priority 2018, published 2019).

Values after ≈ are worked out from the molar mass of the structure shown. Non-standard residues stand in square brackets, D forms with d. Residues, ends and D or L forms follow the SMILES beside them. No end group written: not given here. Dopa = N[C@@H](Cc1ccc(O)c(O)c1)C(=O)O

For the first experiment, the system named is E. coli.
Assay: not given
It is filed as cell-based, Escherichia coli. As to conditions: 18 h. On the procedure: In order to confirm the antimicrobial activity of the adhesive antimicrobial peptides prepared in Experimental Example 1-1, the minimal inhibitory concentration (MIC) which inhibits the growth of E. coli was identified by using a method disclosed in Nature Protocols. 2008; 3(2):163-175. Briefly, a culture medium in which a single colony had been grown for 16 hours was subcultured and grown until OD600 reached 0.4 to 0.6, which corresponds to logarithmic growth. Thereafter, the number of cells was calculated according to the OD values, and the number of cells was set at 10^6 cell/mL. When a Mueller-Hinton Broth (MHB) was loaded to a polypropylene 96-well plate, 90 μL was added to the first row of the plate and 100 μL was added to the control wells, and 50 μL was added to the remaining wells. Thereafter, the peptide solution was prepared at a concentration of […], and 10 μL thereof was added to each well of the first row. The peptide solution was mixed with the medium using a multi-pipette, and then 50 μL was transferred to the second row (B). At this time, the peptide was diluted to half concentration, and the peptide was transferred up to the seventh row by the same method so that the peptide (64 μM to 1 μM) was dissolved in the medium. 10^6 cell/mL of Escherichia coli, which had been prepared previously, was added thereto, and then the plate was cultured for 18 hours. Thus, the final concentration range of the peptide used in the experiment became 32 μM to 0.5 μM. After culturing for 18 hours, the OD values were measured using a microplate reader (Tecan i-control 200 pro), and the MIC values were identified.
Broadly, the MIC is the least concentration at which growth counts as inhibited. A high value points to weaker potency. On to `CC[C@H](C)[C@H](NC(=O)CNC(=O)[C@H](CCCCN)NC(=O)[C@H](CCCCN)NC(=O)[C@H](CCC(N)=O)NC(=O)[C@H](CC(C)C)NC(=O)[C@H](CCCCN)NC(=O)[C@H](CC(C)C)NC(=O)[C@H](CC(C)C)NC(=O)[C@H](CCCCN)NC(=O)[C@H](CCCCN)NC(=O)[C@H](CC(C)C)NC(=O)[C@H](CC(C)C)NC(=O)[C@H](CCCCN)NC(=O)[C@H](CCSC)NC(=O)[C@H](C)NC(=O)[C@H](CCCCN)NC(=O)[C@@H]1CCCN1C(=O)[C@H](C)N)C(=O)NCC(=O)NCC(=O)NCC(=O)NCC(=O)N[C@@H](CO)C(=O)NCC(=O)NCC(=O)NCC(=O)NCC(=O)N[C@@H](CO)C(=O)N[C@@H](Cc1ccc(O)c(O)c1)C(=O)O` [NKC-(G4S)2-DOPA1] (HELM PEPTIDE1{A.P.K.A.M.K.L.L.K.K.L.L.K.L.Q.K.K.G.I.G.G.G.G.S.G.G.G.G.S.[O=C(O)[C@H](Cc1ccc(O)c(O)c1)N[*:1]]}$$$$V2.0; N-terminus and C-terminus assumed), for which the minimal inhibitory concentration (MIC) was determined as 8 µM (≈ 23.7 µg/mL).
Regarding `CC[C@H](C)[C@H](NC(=O)CNC(=O)[C@H](CCCCN)NC(=O)[C@H](CCCCN)NC(=O)[C@H](CCC(N)=O)NC(=O)[C@H](CC(C)C)NC(=O)[C@H](CCCCN)NC(=O)[C@H](CC(C)C)NC(=O)[C@H](CC(C)C)NC(=O)[C@H](CCCCN)NC(=O)[C@H](CCCCN)NC(=O)[C@H](CC(C)C)NC(=O)[C@H](CC(C)C)NC(=O)[C@H](CCCCN)NC(=O)[C@H](CCSC)NC(=O)[C@H](C)NC(=O)[C@H](CCCCN)NC(=O)[C@@H]1CCCN1C(=O)[C@H](C)N)C(=O)NCC(=O)NCC(=O)NCC(=O)NCC(=O)N[C@@H](CO)C(=O)NCC(=O)NCC(=O)NCC(=O)NCC(=O)N[C@@H](CO)C(=O)N[C@@H](Cc1ccc(O)c(O)c1)C(=O)N[C@@H](Cc1ccc(O)c(O)c1)C(=O)N[C@@H](Cc1ccc(O)c(O)c1)C(=O)O` [NKC-(G4S)2-DOPA3] (H-APKAMKLLKKLLKLQKKGIGGGGSGGGGS[Dopa][Dopa][Dopa]-OH; N-terminus and C-terminus assumed), the MIC was 8 µM (≈ 26.5 µg/mL). In other words, the single-digit micromolar range.
Regarding `CC[C@H](C)[C@H](NC(=O)CNC(=O)[C@H](CCCCN)NC(=O)[C@H](CCCCN)NC(=O)[C@H](CCC(N)=O)NC(=O)[C@H](CC(C)C)NC(=O)[C@H](CCCCN)NC(=O)[C@H](CC(C)C)NC(=O)[C@H](CC(C)C)NC(=O)[C@H](CCCCN)NC(=O)[C@H](CCCCN)NC(=O)[C@H](CC(C)C)NC(=O)[C@H](CC(C)C)NC(=O)[C@H](CCCCN)NC(=O)[C@H](CCSC)NC(=O)[C@H](C)NC(=O)[C@H](CCCCN)NC(=O)[C@@H]1CCCN1C(=O)[C@H](C)N)C(=O)NCC(=O)NCC(=O)NCC(=O)NCC(=O)N[C@@H](CO)C(=O)NCC(=O)NCC(=O)NCC(=O)NCC(=O)N[C@@H](CO)C(=O)N[C@@H](Cc1ccc(O)c(O)c1)C(=O)N[C@@H](Cc1ccc(O)c(O)c1)C(=O)N[C@@H](Cc1ccc(O)c(O)c1)C(=O)N[C@@H](Cc1ccc(O)c(O)c1)C(=O)N[C@@H](Cc1ccc(O)c(O)c1)C(=O)O` [NKC-(G4S)2-DOPA5] (H-APKAMKLLKKLLKLQKKGIGGGGSGGGGS[Dopa][Dopa][Dopa][Dopa][Dopa]-OH), the MIC was determined as 8 µM (≈ 29.4 µg/mL).
`CC[C@H](C)[C@H](NC(=O)CNC(=O)[C@H](CCCCN)NC(=O)[C@H](CCCCN)NC(=O)[C@H](CCC(N)=O)NC(=O)[C@H](CC(C)C)NC(=O)[C@H](CCCCN)NC(=O)[C@H](CC(C)C)NC(=O)[C@H](CC(C)C)NC(=O)[C@H](CCCCN)NC(=O)[C@H](CCCCN)NC(=O)[C@H](CC(C)C)NC(=O)[C@H](CC(C)C)NC(=O)[C@H](CCCCN)NC(=O)[C@H](CCSC)NC(=O)[C@H](C)NC(=O)[C@H](CCCCN)NC(=O)[C@@H]1CCCN1C(=O)[C@H](C)N)C(=O)NCC(=O)NCC(=O)NCC(=O)NCC(=O)N[C@@H](CO)C(=O)NCC(=O)NCC(=O)NCC(=O)NCC(=O)N[C@@H](CO)C(=O)N[C@@H](Cc1ccc(O)c(O)c1)C(=O)N[C@@H](Cc1ccc(O)c(O)c1)C(=O)N[C@@H](Cc1ccc(O)c(O)c1)C(=O)N[C@@H](Cc1ccc(O)c(O)c1)C(=O)N[C@@H](Cc1ccc(O)c(O)c1)C(=O)N[C@@H](Cc1ccc(O)c(O)c1)C(=O)N[C@@H](Cc1ccc(O)c(O)c1)C(=O)O` [NKC-(G4S)2-DOPA7] (H-APKAMKLLKKLLKLQKKGIGGGGSGGGGS[Dopa][Dopa][Dopa][Dopa][Dopa][Dopa][Dopa]-OH; N-terminus and C-terminus assumed) showed a minimal inhibitory concentration (MIC) of 16 µM (≈ 64.6 µg/mL). This MIC is about 2-fold higher than that of the molecule before.
Same read-out and setting: under APKAMKLLKKLLKLQKKGI [NKC] stands 1 µM.

The test system of another experiment is E. coli. The experiment in a line: Antimicrobial activity of the coated surface (modified ISO 22196 / colony counting assay). It is filed as cell-based, Escherichia coli. As to conditions: coated on polystyrene at 25, 50 and 100 μM, E. coli cultured 24 hours. On the procedure: In order to confirm the antimicrobial activity in the state where the antimicrobial peptides are coated, the experiment was carried out by an ISO 22196 method in which some steps were changed. Based on the results of Experimental Example 2-1 above, the experiment on the antimicrobial activity was carried out by only using the NKCs to which 3, 5, and 7 DOPA moieties were conjugated (i.e., NKC-L-O3, NKC-L-O5, NKC-L-O7, respectively). Each of NKC-L-O3, NKC-L-O5, and NKC-L-O7 was coated on a polystyrene surface at different concentrations of 25 μM, 50 μM, and 100 μM, and then E. coli in logarithmic phase (10^6 cell/mL) was cultured on the coated surface for 24 hours. After the culture, the culture medium was diluted to a certain concentration and smeared on a plate, and the CFU values were confirmed after 16 hours. The E. coli death level, calculated by comparing the above CFU values with CFU values of the uncoated surface, is represented using the following equation.
Antimicrobial Activity=(1−CFU of Surface of Sample/CFU of Control)×100
In order to measure the antimicrobial activity of NKC-L-O5 (100 μM) according to coating time, a colony counting assay was carried out. […] The plate was cultured at 37° C. for 16 hours, and then the colonies were counted.
As for `CC[C@H](C)[C@H](NC(=O)CNC(=O)[C@H](CCCCN)NC(=O)[C@H](CCCCN)NC(=O)[C@H](CCC(N)=O)NC(=O)[C@H](CC(C)C)NC(=O)[C@H](CCCCN)NC(=O)[C@H](CC(C)C)NC(=O)[C@H](CC(C)C)NC(=O)[C@H](CCCCN)NC(=O)[C@H](CCCCN)NC(=O)[C@H](CC(C)C)NC(=O)[C@H](CC(C)C)NC(=O)[C@H](CCCCN)NC(=O)[C@H](CCSC)NC(=O)[C@H](C)NC(=O)[C@H](CCCCN)NC(=O)[C@@H]1CCCN1C(=O)[C@H](C)N)C(=O)NCC(=O)NCC(=O)NCC(=O)NCC(=O)N[C@@H](CO)C(=O)NCC(=O)NCC(=O)NCC(=O)NCC(=O)N[C@@H](CO)C(=O)N[C@@H](Cc1ccc(O)c(O)c1)C(=O)N[C@@H](Cc1ccc(O)c(O)c1)C(=O)N[C@@H](Cc1ccc(O)c(O)c1)C(=O)O` [NKC-(G4S)2-DOPA3] (H-APKAMKLLKKLLKLQKKGIGGGGSGGGGS[Dopa][Dopa][Dopa]-OH; N-terminus and C-terminus assumed), the “antimicrobial activity in coated state, dependence” value is “antimicrobial activity dependent on the number of DOPA moieties and the concentration of the NKC”.
